Test results from ChEMBL document CHEMBL1201862, “PubChem BioAssay data set” (2004).
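Following 48 hours of exposure in 96-well plates, responses at five concentrations were used to interpolate endpoints linearly. GI50 = concentration required for 50% inhibition of growth.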 Activity calls are given as the source filed them. No stated cut-off is given here; in the data, active = GI50 up to about 1.1 µM and inactive = higher.

Tests used:
Test in all cases: DTP human tumour cell line panel, 48 h
CCRF-CEM = test system: CCRF-CEM
OVCAR-8 = test system: OVCAR-8
NCI-H460 = test system: NCI-H460
COLO 205 = test system: COLO 205
A549 = test system: A549
SK-OV-3 = test system: SK-OV-3
ACHN = test system: ACHN
SK-MEL-28 = test system: SK-MEL-28
SK-MEL-5 = test system: SK-MEL-5
RXF 393 = test system: RXF 393
IGROV-1 = test system: IGROV-1
RPMI-8226 = test system: RPMI-8226
HOP-62 = test system: HOP-62
TK-10 = test system: TK-10
HCT-15 = test system: HCT-15
U-251 = test system: U-251
SK-MEL-2 = test system: SK-MEL-2

Measured: GI50

COc1ccc(-c2cc(O)c3ccc(F)cc3n2)cc1
inactive: CCRF-CEM > 100 µM | OVCAR-8 > 100 µM | NCI-H460 > 100 µM | COLO 205 > 100 µM | A549 > 100 µM | SK-OV-3 > 100 µM | ACHN > 100 µM | SK-MEL-28 > 100 µM | SK-MEL-5 > 100 µM | RXF 393 > 100 µM | IGROV-1 > 100 µM | RPMI-8226 > 100 µM | HOP-62 > 100 µM | TK-10 > 100 µM

CCCCCC(O)(CCCCC)CCCCCCCCC1=C(O)C(=O)c2ccc(=O)[nH]c2C1=O
4.22 µM: HCT-15
inactive: CCRF-CEM 5.62 µM | OVCAR-8 9.06 µM | NCI-H460 8.85 µM | COLO 205 17.9 µM | A549 5.41 µM | SK-OV-3 15.9 µM | ACHN 6.37 µM | U-251 4.72 µM | SK-MEL-28 8.32 µM | SK-MEL-5 3.78 µM | RXF 393 9.38 µM | IGROV-1 5.53 µM | RPMI-8226 4.12 µM | HOP-62 10.4 µM | SK-MEL-2 3.06 µM

Cc1cc(NCCCCCCCCNc2cc(C)nc3cc(N(C)C)ccc23)c2ccc(N(C)C)cc2n1
active: SK-MEL-28 0.933 µM | RPMI-8226 0.736 µM
inactive: CCRF-CEM 5.01 µM | OVCAR-8 6.11 µM | NCI-H460 3.01 µM | COLO 205 1.9 µM | A549 3.31 µM | ACHN 12.3 µM | U-251 1.56 µM | RXF 393 12.9 µM | HOP-62 12.2 µM | SK-MEL-2 5.13 µM | TK-10 > 10 µM
34.8 µM: HCT-15

NNC(=O)C(=O)N/N=C1\CCC(=O)CC1C(=O)CCC(=O)Nc1ccc(Cl)cc1 (configuration not stated)
94.8 µM: HCT-15
inactive: CCRF-CEM > 100 µM | OVCAR-8 > 100 µM | NCI-H460 > 100 µM | COLO 205 > 100 µM | A549 > 100 µM | SK-OV-3 > 100 µM | ACHN > 100 µM | U-251 > 100 µM | SK-MEL-28 > 100 µM | SK-MEL-5 > 100 µM | RXF 393 72.4 µM | IGROV-1 > 100 µM | RPMI-8226 > 100 µM | SK-MEL-2 > 100 µM | TK-10 > 100 µM

Clc1cccc2c1OCC1C(c3ccccc3)=NN(c3ccccc3)C21 (configuration not stated)
inactive: CCRF-CEM 32.2 µM | OVCAR-8 81.8 µM | NCI-H460 59.4 µM | COLO 205 > 100 µM | A549 66.2 µM | SK-OV-3 > 100 µM | ACHN 55.5 µM | U-251 38.9 µM | SK-MEL-28 > 100 µM | SK-MEL-5 23.8 µM | RXF 393 > 100 µM | IGROV-1 > 100 µM | RPMI-8226 22.8 µM | HOP-62 > 100 µM | SK-MEL-2 > 100 µM | TK-10 > 100 µM

C/C(=C1/N=C(c2cc([N+](=O)[O-])ccc2Cl)N(c2ccc(Br)cc2)C1=O)c1ccc(N(CCC#N)CCC#N)cc1C
inactive: CCRF-CEM 12.3 µM | OVCAR-8 43.5 µM | NCI-H460 25.1 µM | COLO 205 32.2 µM | A549 22.5 µM | SK-OV-3 > 100 µM | ACHN 31.5 µM | SK-MEL-28 49.5 µM | SK-MEL-5 13.7 µM | RXF 393 16.8 µM | IGROV-1 28.4 µM | RPMI-8226 28.1 µM | HOP-62 19.8 µM | SK-MEL-2 21.8 µM | TK-10 68.2 µM
16.4 µM: HCT-15

FC(F)(F)c1cccc(C2SCc3nc4ccccc4n32)c1 (configuration not stated)
inactive: CCRF-CEM 32.8 µM | OVCAR-8 59.3 µM | COLO 205 > 100 µM | A549 56.1 µM | SK-OV-3 26.8 µM | ACHN 64 µM | U-251 62.7 µM | SK-MEL-28 65.9 µM | SK-MEL-5 11 µM | RXF 393 33.1 µM | IGROV-1 33.7 µM | RPMI-8226 12.9 µM | SK-MEL-2 > 100 µM | TK-10 72.3 µM

O=C(c1ccncc1)n1nc(-c2ccccc2)c(/N=N/c2ccccc2[N+](=O)[O-])c1-c1ccccc1
inactive: CCRF-CEM 59.3 µM | OVCAR-8 56.1 µM | COLO 205 > 100 µM | A549 39.4 µM | SK-OV-3 > 100 µM | SK-MEL-28 > 100 µM | SK-MEL-5 21.6 µM | IGROV-1 73.8 µM | RPMI-8226 28.3 µM | HOP-62 38.3 µM | SK-MEL-2 > 100 µM | TK-10 67.9 µM

C/C(CC(=O)Nc1cc(C)ccc1C)=N\NC(=O)c1ccncc1
inactive: CCRF-CEM > 100 µM | OVCAR-8 > 100 µM | NCI-H460 > 100 µM | COLO 205 > 100 µM | A549 > 100 µM | SK-OV-3 > 100 µM | U-251 > 100 µM | SK-MEL-28 > 100 µM | SK-MEL-5 > 100 µM | RXF 393 > 100 µM | IGROV-1 > 100 µM | RPMI-8226 > 100 µM | HOP-62 > 100 µM | SK-MEL-2 > 100 µM | TK-10 > 100 µM

C[N+](C)(C)CC(CC(=O)[O-])C1CC1 (configuration not stated)
inactive: CCRF-CEM > 100 µM | OVCAR-8 > 100 µM | NCI-H460 > 100 µM | COLO 205 > 100 µM | A549 > 100 µM | SK-OV-3 > 100 µM | ACHN > 100 µM | U-251 > 100 µM | SK-MEL-28 > 100 µM | SK-MEL-5 > 100 µM | RXF 393 > 100 µM | IGROV-1 > 100 µM | RPMI-8226 > 100 µM | HOP-62 > 100 µM | SK-MEL-2 > 100 µM | TK-10 > 100 µM
> 100 µM: HCT-15

COC(=O)CC(NC(=O)OCc1ccccc1)C(C(=O)OCc1ccccc1)C1(C)OCCO1 (configuration not stated)
37.8 µM: HCT-15
inactive: CCRF-CEM 26.6 µM | OVCAR-8 25.2 µM | NCI-H460 34.7 µM | COLO 205 18.6 µM | A549 32.4 µM | ACHN 34.9 µM | U-251 33.1 µM | SK-MEL-28 66.5 µM | SK-MEL-5 17.5 µM | RXF 393 21.4 µM | IGROV-1 40 µM | RPMI-8226 22.1 µM | HOP-62 47.5 µM | SK-MEL-2 20 µM | TK-10 57.1 µM

COc1cc(C(O)C(=O)c2cnc3cc([N+](=O)[O-])ccc3n2)ccc1O (configuration not stated)
inactive: CCRF-CEM > 100 µM | OVCAR-8 > 100 µM | NCI-H460 > 100 µM | COLO 205 > 100 µM | A549 > 100 µM | SK-OV-3 > 100 µM | ACHN > 100 µM | U-251 > 100 µM | SK-MEL-5 > 100 µM | RXF 393 64.1 µM | IGROV-1 > 100 µM | RPMI-8226 > 100 µM | HOP-62 85.5 µM | SK-MEL-2 > 100 µM | TK-10 > 100 µM
> 100 µM: HCT-15

C=C1C2CC(OC(C)=O)C3(C)C(c4ccoc4)OC(=O)[C@@H](O)[C@]13OC1C[C@H](OC(C)=O)C(C)(C)[C@H](C(O)C(=O)OC)[C@]12C (some centres not stated)
> 100 µM: HCT-15
inactive: CCRF-CEM > 100 µM | OVCAR-8 > 100 µM | NCI-H460 > 100 µM | COLO 205 > 100 µM | A549 > 100 µM | SK-OV-3 > 100 µM | ACHN > 100 µM | U-251 > 100 µM | SK-MEL-28 > 100 µM | SK-MEL-5 > 100 µM | IGROV-1 > 100 µM | RPMI-8226 > 100 µM | SK-MEL-2 > 100 µM | TK-10 > 100 µM
